From US11458121B2, “Therapeutic compounds and methods to treat infection” (priority 2017, dated 2022) come the findings set out here.

Converted amounts (≈) assume the structure as drawn. Some results are limits rather than exact numbers.

The subject of experiment [1] is P. aeruginosa PAO1. Kind of experiment: Intrinsic MIC assay (CLSI broth microdilution). It counts as cell-based. The following applies: Pseudomonas aeruginosa, 18 h; P. aeruginosa PAO1; compound alone, without EPI; MIC = lowest concentration inhibiting 90% of growth; read-out: Antibiotic Activity Against P. aeruginosa Intrinsic MIC. The text has this: As used herein, the term “minimum inhibitory concentration (MIC)” refers to the lowest concentration of a compound (e.g., an antibiotic) that prevents visible growth of a bacterium. Assays for measuring the MIC of a compound are known in the art, for example, as described herein. As used herein, the term “intrinsic MIC” refers the MIC of a compound (e.g., an antibiotic) for the particular bacterial species that has not been pre-exposed to the compound. Intrinsic MIC Assays MIC assays were conducted in accordance with Clinical and Laboratory Standards Institute (CLSI) guidelines for broth microdilution. A 96-well plate containing cation-adjusted Mueller-Hinton (CAMH broth with 2-fold serial dilution of compounds was inoculated with log-phase bacterial at 5×10^5 CFU/mL. The final volume in each well was 100 μL. Each compound was tested in duplicate. The microtiter plates were incubated in an aerobic environment for 18 hours at 37° C. Then the bacterial growth was tested by reading the plate with a VersaMax plate reader (Molecular Devices, Inc.) at 600 nm. The MIC was defined as the lowest compound concentration that inhibited 90% of bacteria growth. The intrinsic MIC of the experimental EPIs was tested with the method described. […] The following Gram-negative bacterial strains were included in these assays: Pseudomonas aeruginosa PAO1
In general terms: In broth dilution the organism is exposed to a series of concentrations in liquid medium.

Experiment [2] deals with P. aeruginosa PAO1. The experiment can be described thus: MIC assay in the presence of a bacterial efflux pump inhibitor (EPI). In kind it is cell-based, Pseudomonas aeruginosa. The note with it: P. aeruginosa PAO1; for Enhancement (intrinsic MIC versus MIC with EPI): fold enhancement with 12.5 ug/ml EPI; for Antibiotic Activity Against P. aeruginosa MIC with EPI: with 12.5 ug/ml of EPI (2S,4R)-4-(ammoniomethyl)-2-((6-(4-fluorophenyl)-1H-indole-2-carboxamido)methyl)pyrrolidin-1-ium. Here is the method:
The ability of a compound to produce an antibiotic effect can be determined using a method as described in Example 42. […] MIC assays were conducted in accordance with Clinical and Laboratory Standards Institute (CLSI) guidelines for broth microdilution. A 96-well plate containing cation-adjusted Mueller-Hinton (CAMH broth with 2-fold serial dilution of compounds was inoculated with log-phase bacterial at 5×10^5 CFU/mL. The final volume in each well was 100 μL. Each compound was tested in duplicate. The microtiter plates were incubated in an aerobic environment for 18 hours at 37° C. Then the bacterial growth was tested by reading the plate with a VersaMax plate reader (Molecular Devices, Inc.) at 600 nm. The MIC was defined as the lowest compound concentration that inhibited 90% of bacteria growth. MIC Assays in the Presence of a Bacterial Efflux Inhibitor The EPI assay for the purposes of these studies represents a MIC assay in which the MIC of the antibiotic against the bacteria is tested in the presence of an experimental efflux pump inhibitor (EPI). The highest concentration of the EPI present in the assay typically is ½ of the intrinsic MIC of the compound. […] Using serial dilutions of the EPI, its enhancement of antibiotic activity was then evaluated. The relative EPI activity was decided by comparing the MIC of the antibiotic in the presence of the EPI compound with the intrinsic MIC of the antibiotic alone. For comparative purposes, we generally used EPIs at concentration of 12.5 and 6.25 μg/ml against varying concentration of our test antibiotic.

The next experiment deals with E. coli 25922. Kind of experiment: Intrinsic MIC assay (CLSI broth microdilution). The note with it: Escherichia coli, 18 h; E. coli 25922; compound alone, without EPI; read-out: Antibiotic Activity Against E. coli Intrinsic MIC. It counts as cell-based, Escherichia coli. An excerpt:
As used herein, the term “minimum inhibitory concentration (MIC)” refers to the lowest concentration of a compound (e.g., an antibiotic) that prevents visible growth of a bacterium. Assays for measuring the MIC of a compound are known in the art, for example, as described herein. As used herein, the term “intrinsic MIC” refers the MIC of a compound (e.g., an antibiotic) for the particular bacterial species that has not been pre-exposed to the compound. Intrinsic MIC Assays MIC assays were conducted in accordance with Clinical and Laboratory Standards Institute (CLSI) guidelines for broth microdilution. A 96-well plate containing cation-adjusted Mueller-Hinton (CAMH broth with 2-fold serial dilution of compounds was inoculated with log-phase bacterial at 5×10^5 CFU/mL. The final volume in each well was 100 μL. Each compound was tested in duplicate. The microtiter plates were incubated in an aerobic environment for 18 hours at 37° C. Then the bacterial growth was tested by reading the plate with a VersaMax plate reader (Molecular Devices, Inc.) at 600 nm. The MIC was defined as the lowest compound concentration that inhibited 90% of bacteria growth. The intrinsic MIC of the experimental EPIs was tested with the method described. […] The following Gram-negative bacterial strains were included in these assays: Escherichia coli ATCC 25922

The MIC is the least concentration at which growth counts as inhibited. Take `NC1CCCc2c1[nH]c1ccc(Br)cc21` (stereo not drawn) [Example 1, 6-Bromo-2,3,4,9-tetrahydro-1H-carbazol-1-amine]: the MIC in the experiment on P. aeruginosa PAO1 [1] is 32 µg/mL (≈ 121 µM); in the experiment with E. coli 25922, 8 µg/mL (≈ 30.2 µM). In addition, the “Enhancement (intrinsic MIC versus MIC with EPI)” value in the experiment with P. aeruginosa PAO1 [2] is recorded as “(64x)”. The “Antibiotic Activity Against P. aeruginosa MIC with EPI” value in the experiment on P. aeruginosa PAO1 [2] was 0.5 µg/mL.
For `NC1CCCc2c1[nH]c1ccc(-c3ccc(F)cc3)cc21` (stereo not drawn) [Example 2, 6-(4-Fluorophenyl)-2,3,4,9-tetrahydro-1H-carbazol-1-amine] the same measures were 256 µg/mL (≈ 913 µM), 16 µg/mL (≈ 57.1 µM), “(64x)” and 4 µg/mL.
For `COc1ccc(-c2ccc3[nH]c4c(c3c2)CCCC4N)cc1` (stereo not drawn) [Example 3, 6-(4-Methoxyphenyl)-2,3,4,9-tetrahydro-1H-carbazol-1-amine], the MIC with P. aeruginosa PAO1 [1] was above 256 µg/mL; in the experiment with E. coli 25922, 32 µg/mL (≈ 109 µM). In the experiment on P. aeruginosa PAO1 [2], the “Enhancement (intrinsic MIC versus MIC with EPI)” value is “(>16x)”. The “Antibiotic Activity Against P. aeruginosa MIC with EPI” value in the experiment on P. aeruginosa PAO1 [2] was 16 µg/mL.
As to `NC1CCCc2c1[nH]c1ccc(-c3ccc(C(F)(F)F)cc3)cc21` (stereo not drawn) [Example 4, 6-(4-(Trifluoromethyl)phenyl)-2,3,4,9-tetrahydro-1H-carbazol-1-amine], in the experiment with P. aeruginosa PAO1 [1], the minimum inhibitory concentration (MIC) was above 256 µg/mL. Besides, in the experiment with P. aeruginosa PAO1 [2], the “Enhancement (intrinsic MIC versus MIC with EPI)” value is given as “(>64x)” and the “Antibiotic Activity Against P. aeruginosa MIC with EPI” value came to 4 µg/mL. The minimal inhibitory concentration (MIC) with E. coli 25922 was found to be 16 µg/mL (≈ 48.4 µM).
On to `NC1CCCc2c1[nH]c1cc(Br)ccc21` (stereo not drawn) [Example 5a, 7-Bromo-2,3,4,9-tetrahydro-1H-carbazol-1-amine], for which the MIC in the experiment on P. aeruginosa PAO1 [1] turned out to be 64 µg/mL (≈ 241 µM); in the experiment on E. coli 25922 it was 32 µg/mL (≈ 121 µM). For the same compound, in the experiment on P. aeruginosa PAO1 [2], the “Enhancement (intrinsic MIC versus MIC with EPI)” value is recorded as “(64x)”. For the same compound, the “Antibiotic Activity Against P. aeruginosa MIC with EPI” value in the experiment with P. aeruginosa PAO1 [2] was found to be 1 µg/mL.
In the case of `NC1CCCc2c1[nH]c1cccc(Br)c21` (stereo not drawn) [Example 5b, 5-Bromo-2,3,4,9-tetrahydro-1H-carbazol-1-amine], the MIC with P. aeruginosa PAO1 [1] is 128 µg/mL (≈ 483 µM). Moreover, in the experiment with P. aeruginosa PAO1 [2], the “Enhancement (intrinsic MIC versus MIC with EPI)” value is listed as “(64x)” and the “Antibiotic Activity Against P. aeruginosa MIC with EPI” value amounted to 2 µg/mL. The MIC in the experiment with E. coli 25922 came to 16 µg/mL (≈ 60.3 µM).
The matching figures for `CC(C)(C)OC(=O)NC1CCCc2c1[nH]c1ccc(Br)cc21` (stereo not drawn) [Example 6, Tert-Butyl (6-bromo-2,3,4,9-tetrahydro-1H-carbazol-1-yl)carbamate]: above 256 µg/mL, “(4x)”, above 64 µg/mL and above 256 µg/mL.
For `CNC1CCCc2c1[nH]c1ccc(Br)cc21` (stereo not drawn) [Example 7, 6-Bromo-N-methyl-2,3,4,9-tetrahydro-1H-carbazol-1-amine] the same measures were 256 µg/mL (≈ 917 µM), “(32x)”, 8 µg/mL and 32 µg/mL (≈ 115 µM).
With `CC(=O)NC1CCCc2c1[nH]c1ccc(Br)cc21` (stereo not drawn) [Example 8, N-(6-Bromo-2,3,4,9-tetrahydro-1H-carbazol-1-yl)acetamide], in the experiment with P. aeruginosa PAO1 [1], the MIC is above 256 µg/mL. In the experiment on P. aeruginosa PAO1 [2], the “Enhancement (intrinsic MIC versus MIC with EPI)” value is listed as “(4x)” and the “Antibiotic Activity Against P. aeruginosa MIC with EPI” value was above 64 µg/mL. Further, in the experiment with E. coli 25922, the MIC was above 256 µg/mL.
For `O=C(NC1CCCc2c1[nH]c1ccc(Br)cc21)c1ccccc1` (stereo not drawn) [Example 9, N-(6-Bromo-2,3,4,9-tetrahydro-1H-carbazol-1-yl)benzamide], in the experiment with P. aeruginosa PAO1 [1], the MIC was above 256 µg/mL. Besides, in the experiment on P. aeruginosa PAO1 [2], the “Enhancement (intrinsic MIC versus MIC with EPI)” value is “(4x)” and the “Antibiotic Activity Against P. aeruginosa MIC with EPI” value was above 64 µg/mL. In the experiment on E. coli 25922, the minimal inhibitory concentration (MIC) is above 256 µg/mL.
As to `CC(C)(C)OC(=O)NC1CCCc2c1[nH]c1cc(Br)ccc21` (stereo not drawn) [Example 11, Tert-Butyl (7-bromo-2,3,4,9-tetrahydro-1H-carbazol-1-yl)carbamate], the minimal inhibitory concentration (MIC) in the experiment with P. aeruginosa PAO1 [1] is above 256 µg/mL. In addition, in the experiment on P. aeruginosa PAO1 [2], the “Enhancement (intrinsic MIC versus MIC with EPI)” value is “(4x)” and the “Antibiotic Activity Against P. aeruginosa MIC with EPI” value is above 64 µg/mL. Moreover, in the experiment with E. coli 25922, the MIC was above 256 µg/mL.
Turning to `NC1CCCc2c1[nH]c1ccc(F)cc21` (stereo not drawn) [Example 12, 6-Fluoro-2,3,4,9-tetrahydro-1H-carbazol-1-amine], in the experiment with P. aeruginosa PAO1 [1], the minimum inhibitory concentration (MIC) was 128 µg/mL (≈ 627 µM). In addition, in the experiment on P. aeruginosa PAO1 [2], the “Enhancement (intrinsic MIC versus MIC with EPI)” value is on record as “(64x)” and the “Antibiotic Activity Against P. aeruginosa MIC with EPI” value stood at 2 µg/mL. Moreover, the minimal inhibitory concentration (MIC) in the experiment with E. coli 25922 worked out at 64 µg/mL (≈ 313 µM).
The matching figures for `NC1CCCc2c1[nH]c1ccc(Cl)cc21` (stereo not drawn) [Example 13, 6-Chloro-2,3,4,9-tetrahydro-1H-carbazol-1-amine]: 128 µg/mL (≈ 580 µM), “(16x)”, 1 µg/mL and 16 µg/mL (≈ 72.5 µM).
For `NC1CCCc2c1[nH]c1ccc(C(F)(F)F)cc21` (stereo not drawn) [Example 14, 6-(Trifluoromethyl)-2,3,4,9-tetrahydro-1H-carbazol-1-amine] the same measures were 64 µg/mL (≈ 252 µM), “(32x)”, 2 µg/mL and 64 µg/mL (≈ 252 µM).
For `NC1CCCc2c1[nH]c1ccc(OC(F)(F)F)cc21` (stereo not drawn) [Example 15, 6-(Trifluoromethoxy)-2,3,4,9-tetrahydro-1H-carbazol-1-amine] the same measures were 128 µg/mL (≈ 474 µM), “(8x)”, 16 µg/mL and 64 µg/mL (≈ 237 µM).
Regarding `N#Cc1ccc2[nH]c3c(c2c1)CCCC3N` (stereo not drawn) [Example 16, 1-Amino-2,3,4,9-tetrahydro-1H-carb azole-6-carbonitrile], the MIC in the experiment with P. aeruginosa PAO1 [1] is above 256 µg/mL. Further, in the experiment on P. aeruginosa PAO1 [2], the “Enhancement (intrinsic MIC versus MIC with EPI)” value was “(>8x)” and the “Antibiotic Activity Against P. aeruginosa MIC with EPI” value was determined as 32 µg/mL. Further, in the experiment with E. coli 25922, the minimal inhibitory concentration (MIC) worked out at 256 µg/mL (≈ 1210 µM).
For `NC1CCCc2c1[nH]c1c(Br)cccc21` (stereo not drawn) [Example 17, 8-Bromo-2,3,4,9-tetrahydro-1H-carbazol-1-amine] the same measures were above 256 µg/mL, “(>2x)”, 128 µg/mL and 64 µg/mL (≈ 241 µM).
Consider `COc1ccc2[nH]c3c(c2c1)CCCC3N.Cl` (stereo not drawn) [Example 18, 6-Methoxy-2,3,4,9-tetrahydro-1H-carbazol-1-amine Hydrogen Chloride Salt], for which the MIC in the experiment with P. aeruginosa PAO1 [1] was above 256 µg/mL. In the experiment on P. aeruginosa PAO1 [2], the “Enhancement (intrinsic MIC versus MIC with EPI)” value is reported as “(>8x)” and the “Antibiotic Activity Against P. aeruginosa MIC with EPI” value was found to be 32 µg/mL. Also, the minimum inhibitory concentration (MIC) in the experiment on E. coli 25922 is above 256 µg/mL.
For `Cn1c2c(c3cc(Br)ccc31)CCCC2N` (stereo not drawn) [Example 19, 6-Bromo-9-methyl-2,3,4,9-tetrahydro-1H-carbazol-1-amine], the figures for the minimum inhibitory concentration (MIC) with P. aeruginosa PAO1 [1] and with E. coli 25922 were 256 µg/mL (≈ 917 µM) and 64 µg/mL (≈ 229 µM), respectively. In the experiment on P. aeruginosa PAO1 [2], the “Enhancement (intrinsic MIC versus MIC with EPI)” value is on record as “(4x)”. Besides, the “Antibiotic Activity Against P. aeruginosa MIC with EPI” value in the experiment on P. aeruginosa PAO1 [2] amounted to 64 µg/mL.
In the case of `NCCCNC1CCCc2c1[nH]c1ccc(Br)cc21` (stereo not drawn) [Example 40, N^1-(6-Bromo-2,3,4,9-tetrahydro-1H-carbazol-1-yl)propane-1,3-diamine], the MIC in the experiment with P. aeruginosa PAO1 [1] and in the experiment with E. coli 25922 was 32 µg/mL (≈ 99.3 µM) throughout.
